Molecular target: T1, FSHR (Homo sapiens, UniProt P23945)
T1 construct: expressed in transfected cells; host or cells: CHO cells, clone Cho-FSHR-LUC-1-1-43
T1 sequence (P23945 18-695): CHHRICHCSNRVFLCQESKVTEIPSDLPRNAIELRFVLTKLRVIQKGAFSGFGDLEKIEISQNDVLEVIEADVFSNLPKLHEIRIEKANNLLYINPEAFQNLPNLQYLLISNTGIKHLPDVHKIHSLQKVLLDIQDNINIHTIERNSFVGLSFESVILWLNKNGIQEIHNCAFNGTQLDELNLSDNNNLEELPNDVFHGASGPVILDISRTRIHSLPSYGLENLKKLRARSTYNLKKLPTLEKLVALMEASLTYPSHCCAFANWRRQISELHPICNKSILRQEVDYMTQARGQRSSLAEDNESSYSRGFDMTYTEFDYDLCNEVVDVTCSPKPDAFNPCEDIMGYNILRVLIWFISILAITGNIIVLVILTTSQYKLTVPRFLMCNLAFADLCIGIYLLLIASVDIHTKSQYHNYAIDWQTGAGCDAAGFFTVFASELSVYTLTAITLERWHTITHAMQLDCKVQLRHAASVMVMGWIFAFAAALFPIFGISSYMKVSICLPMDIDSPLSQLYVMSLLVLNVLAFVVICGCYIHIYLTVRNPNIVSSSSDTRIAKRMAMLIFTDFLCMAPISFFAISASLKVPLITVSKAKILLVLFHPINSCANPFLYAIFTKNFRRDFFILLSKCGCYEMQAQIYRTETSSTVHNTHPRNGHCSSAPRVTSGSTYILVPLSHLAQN
Assay: EC50 of cyclic AMP production in CHO FSHR cells + EC20 FSH (Assay A)
Assay type: cell-based
Details: CHO-FSHR-LUC cells, in presence of EC20 FSH, cAMP HTRF, 1 h 37° C.
Protocol: EC50 of cyclic AMP production in CHO FSHR cells+EC20 FSH (Assay A)
2500 Cho-FSHR-LUC-1-1-43 cells were plated per well in 5 μl of phenol red free DMEM/F12+1% FBS. […] Cells were assayed by adding 100 μl of 2×EC20 FSH/IBMX in DMEM/F12+0.1% BSA) by Multidrop to 2 μl of test compound stamped in 384 well plates (compounds are diluted 1:50). […] The compound plate map was as follows: Column 1: 2 μl of DMSO; Column 2: 2 μl of DMSO; Columns 3-12 and 13-24: 2 μl of test compound, diluted 1:4 in 100% DMSO, or 2 μl of FSH, diluted 1:4 in DMEM/F12+0.1% BSA. The starting concentration for FSH was 50 nM (final concentration was 0.5 nM). […] 10 μl of mixed HTRF (CisBio #62AM4PEC) reagents were added per well and incubated at room temperature for 1 h. The plates were read on Envision using the cAMP HTRF—low volume 384 well protocol. […] Values given in percent (%) indicate the percental effect (response) at a certain concentration of agonist relative to the maximum response of the FSH standard.

Which EC50 does the source give for `COc1cc2c(cc1OC(C)C)-n1c(-c3cscc3C)nc(C(=O)N3CCOCC3(C)C)c1CC2` [Compound 120] here?
The EC50 was under 100 nM.

With `COc1cc2c(cc1OC(C)C)-n1c(-c3ccnn3C)nc(C(=O)N3CCOCC3(C)C)c1CC2` [Compound 40] as the compound, how does the EC50 read?
Its EC50 is 1000 to 5000 nM.

With `COc1cc2c(cc1OC(C)C)-n1c(-c3cc(C)sc3C)nc(C(=O)N3CCOCC3(C)C)c1CC2` [Compound 129] as the compound, how does the EC50 read?
Its EC50 is 100 to 1000 nM.

`[2H]C([2H])([2H])N(C(=O)c1nc(-c2cccs2)n2c1CCc1cc(OC)c(-c3ccn(C)n3)cc1-2)C1(C)COC1` [Compound 130, 7-Methoxy-8-(1-methyl-1H-pyrazol-3-yl)-1-thiophen-2-yl-4,5-dihydro-imidazo[1,5-a]quinoline-3-carboxylic acid methyl-d3-(3-methyl-oxetan-3-yl)-amide] was tested. Which EC50 did it give?
The EC50 was 100 to 1000 nM.

How did the EC50 turn out when `COc1ccc(-c2nc(C(=O)N3CCOCC3(C)C)c3n2-c2cc(OC(C)C)c(OC)cc2CC3)c(C)c1` [Compound 128] was run?
Its EC50 is 1000 to 5000 nM.

Which EC50 does the source give for `COc1cc2c(cc1OC(C)C)-n1c(-c3ccncc3)nc(C(=O)N(C)C(C)(C)C)c1CC2` [Compound 13] here?
Its EC50 is over 5000 nM.

`COc1cc2c(cc1OC(C)C)-n1c(C3=CCNCC3)nc(C(=O)N3CCOCC3(C)C)c1CC2` [Compound 131] was tested. Which EC50 did it give?
The EC50 was over 5000 nM.

With `COc1cc2c(cc1OC(C)C)-n1c(-c3cccc4c3OCCO4)nc(C(=O)N3CCOCC3(C)C)c1CC2` [Compound 121] as the compound, how does the EC50 read?
Its EC50 is over 5000 nM.

`COc1cc2c(cc1OC(C)C)-n1c(-c3ccn(C)n3)nc(C(=O)N3CCOCC3(C)C)c1CC2` [Compound 43] was tested. Which EC50 did it give?
Its EC50 is over 5000 nM.

How did the EC50 turn out when `COc1cc(-c2nc(C(=O)N3CCOCC3(C)C)c3n2-c2cc(OC(C)C)c(OC)cc2CC3)ccc1F` [Compound 108] was run?
The EC50 was 1000 to 5000 nM.

With `COc1cc2c(cc1OC(C)C)-n1c(-c3cc(Cl)ccc3Cl)nc(C(=O)N(C)C(C)(C)C)c1CC2` [Compound 65] as the compound, how does the EC50 read?
Its EC50 is 100 to 1000 nM.

Which EC50 does the source give for `COc1cc2c(cc1CC(C)C)-n1c(-c3cccn3C(=O)OC(C)(C)C)nc(C(=O)N3CCOCC3(C)C)c1CC2` [Compound 26, 2-[3-(3,3-Dimethyl-morpholine-4-carbonyl)-8-isobutyl-7-methoxy-4,5-dihydro-imidazo[1,5-a]quinolin-1-yl]-pyrrole-1-carboxylic acid tert-butyl ester] here?
Its EC50 is 1000 to 5000 nM.

`COc1cc2c(cc1OC(C)C)-n1c(-c3ccc(F)c(C(F)(F)F)c3)nc(C(=O)N3CCOCC3(C)C)c1CC2` [Compound 111] was tested. Which EC50 did it give?
Its EC50 is 1000 to 5000 nM.

How did the EC50 turn out when `COc1cc2c(cc1OC(C)C)-n1c(-c3ccccc3Cl)nc(C(=O)N(C)C(C)(C)C)c1CC2` [Compound 67] was run?
The EC50 was 100 to 1000 nM.

`COc1cc2c(cc1OC(C)C)-n1c(-c3cn(C)nn3)nc(C(=O)N3CCOCC3(C)C)c1CC2` [Compound 52] was tested. Which EC50 did it give?
Its EC50 is over 5000 nM.

With `COc1cc2c(cc1OC(C)C)-n1c(Br)nc(C(=O)N3CCCN(C(=O)C4CCC4)CC3)c1CC2` [Compound 3] as the compound, how does the EC50 read?
The EC50 was under 100 nM.

`COc1cc2c(cc1OC(C)C)-n1c(-c3ccn(C)c3)nc(C(=O)N(C)C(C)(C)C)c1CC2` [Compound 15] was tested. Which EC50 did it give?
The EC50 was 100 to 1000 nM.

With `COc1cc2c(cc1OC(C)C)-n1c(C3=CCC(C)CC3)nc(C(=O)N3CCOCC3(C)C)c1CC2` (stereo not shown) [Compound 86] as the compound, how does the EC50 read?
Its EC50 is 1000 to 5000 nM.

How did the EC50 turn out when `COc1cc2c(cc1-c1ccn(C)n1)-n1c(-c3ccsc3)nc(C(=O)N(C)C(C)(C)C)c1CC2` [Compound 77, 7-Methoxy-8-(1-methyl-1H-pyrazol-3-yl)-1-thiophen-3-yl-4,5-dihydro-imidazo[1,5-a]quinoline-3-carboxylic acid tert-butyl-methyl-amide] was run?
Its EC50 is 100 to 1000 nM.

How did the EC50 turn out when `COc1cc2c(cc1OC(C)C)-n1c(-c3cnc(C)s3)nc(C(=O)N(C)C(C)(C)C)c1CC2` [Compound 16] was run?
The EC50 was 1000 to 5000 nM.

With `COc1cc2c(cc1CC(C)C)-n1c(-c3cc[nH]n3)nc(C(=O)N(C)C(C)(C)C)c1CC2` [Compound 12, 8-Isobutyl-7-methoxy-1-(1H-pyrazol-3-yl)-4,5-dihydro-imidazo[1,5-a]quinoline-3-carboxylic acid tert-butyl-methyl-amide] as the compound, how does the EC50 read?
Its EC50 is over 5000 nM.

For `COc1ccc(-c2nc(C(=O)N3CCOCC3(C)C)c3n2-c2cc(OC(C)C)c(OC)cc2CC3)cc1Cl` [Compound 103], which EC50 is on record?
Its EC50 is over 5000 nM.

`[2H]C([2H])([2H])N(C(=O)c1nc(-c2cccs2)n2c1CCc1cc(OC)c(CC(C)C)cc1-2)C1(C)COC1` [Compound 58, 8-Isobutyl-7-methoxy-1-thiophen-2-yl-4,5-dihydro-imidazo[1,5-a]quinoline-3-carboxylic acid methyl-d3-(3-methyl-oxetan-3-yl)-amide] was tested. Which EC50 did it give?
The EC50 was under 100 nM.

With `COc1cc2c(cc1OC(C)C)-n1c(C3CCCC3)nc(C(=O)N3CCOCC3(C)C)c1CC2` [Compound 83, (1-Cyclopentyl-8-isopropoxy-7-methoxy-4,5-dihydro-imidazo[1,5-a]quinolin-3-yl)-(3,3-dimethyl-morpholin-4-yl)-methanone] as the compound, how does the EC50 read?
The EC50 was 100 to 1000 nM.

`[2H]C([2H])([2H])NC(=O)c1cc2c(cc1OC)CCc1c(C(=O)N(C)C(C)(C)C)nc(-c3cccs3)n1-2` [Compound 90, 7-Methoxy-1-thiophen-2-yl-4,5-dihydro-imidazo[1,5-a]quinoline-3,8-dicarboxylic acid 3-(tert-butyl-methyl-amide) 8-methyl-d3-amide] was tested. Which EC50 did it give?
Its EC50 is 1000 to 5000 nM.

`COc1cc2c(cc1OC(C)C)-n1c(-c3[nH]ncc3C)nc(C(=O)N3CCOCC3(C)C)c1CC2` [Compound 54] was tested. Which EC50 did it give?
Its EC50 is 1000 to 5000 nM.

`COc1cc2c(cc1OC(C)C)-n1c(-c3cccnc3)nc(C(=O)N3CCOCC3(C)C)c1CC2` [Compound 39] was tested. Which EC50 did it give?
Its EC50 is 1000 to 5000 nM.

For `COc1cc2c(cc1OC(C)C)-n1c(-c3ccc(F)c(Cl)c3F)nc(C(=O)N3CCOCC3(C)C)c1CC2` [Compound 123], which EC50 is on record?
Its EC50 is 1000 to 5000 nM.

For `COc1cc2c(cc1NC(=O)C(C)C)-n1c(-c3cccs3)nc(C(=O)N3CCOCC3(C)C)c1CC2` [Compound 78, N-[3-(3,3-Dimethyl-morpholine-4-carbonyl)-7-methoxy-1-thiophen-2-yl-4,5-dihydro-imidazo[1,5-a]quinolin-8-yl]-isobutyramide], which EC50 is on record?
The EC50 was 100 to 1000 nM.

With `COc1cc2c(cc1OC(C)C)-n1c(-c3cccc4c3OCO4)nc(C(=O)N3CCOCC3(C)C)c1CC2` [Compound 141] as the compound, how does the EC50 read?
The EC50 was 100 to 1000 nM.

Which EC50 does the source give for `COc1cccc(-c2nc(C(=O)N3CCOCC3(C)C)c3n2-c2cc(OC(C)C)c(OC)cc2CC3)c1` [Compound 115] here?
The EC50 was 100 to 1000 nM.

With `COc1cc2c(cc1OC)-n1c(-c3cccs3)nc(C(=O)N(C)C(C)(C)C)c1CC2` [Compound 1, 7,8-Dimethoxy-1-thiophen-2-yl-4,5-dihydro-imidazo[1,5-a]quinoline-3-carboxylic acid tert-butyl-methyl-amide] as the compound, how does the EC50 read?
Its EC50 is 100 to 1000 nM.

`COc1cc2c(cc1OC(C)C)-n1c(-c3cccc(Cl)c3Cl)nc(C(=O)N3CCOCC3(C)C)c1CC2` [Compound 142] was tested. Which EC50 did it give?
The EC50 was 100 to 1000 nM.

Which EC50 does the source give for `COc1cc2c(cc1OC(C)C)-n1c(-c3ccccc3OC)nc(C(=O)N(C)C(C)(C)C)c1CC2` [Compound 62] here?
The EC50 was 1000 to 5000 nM.

For `COc1cc2c(cc1OC(C)C)-n1c(Br)nc(C(=O)N(C)C(C)(C)C)c1CC2` [Compound 4, 1-Bromo-8-isopropoxy-7-methoxy-4,5-dihydro-imidazo[1,5-a]quinoline-3-carboxylic acid tert-butyl-methyl-amide], which EC50 is on record?
The EC50 was over 5000 nM.

With `CCCn1nccc1-c1nc(C(=O)N2CCOCC2(C)C)c2n1-c1cc(OC(C)C)c(OC)cc1CC2` [Compound 88] as the compound, how does the EC50 read?
The EC50 was 100 to 1000 nM.

`COc1cc2c(cc1-c1ccn(C)n1)-n1c(-c3ccc(C)s3)nc(C(=O)N3CCOCC3(C)C)c1CC2` [Compound 147, (3,3-dimethylmorpholino)(7-methoxy-8-(1-methyl-1H-pyrazol-3-yl)-1-(5-methylthiophen-2-yl)-4,5-dihydroimidazo[1,5-a]quinolin-3-yl)methanone] was tested. Which EC50 did it give?
The EC50 was 100 to 1000 nM.

How did the EC50 turn out when `COc1cc2c(cc1CC(C)C)-n1c(C3CCN(C)CC3)nc(C(=O)N(C)C(C)(C)C)c1CC2` [Compound 22, N-(tert-butyl)-8-isobutyl-7-methoxy-N-methyl-1-(1-methylpiperidin-4-yl)-4,5-dihydroimidazo[1,5-a]quinoline-3-carboxamide] was run?
The EC50 was 1000 to 5000 nM.

Which EC50 does the source give for `COc1cc2c(cc1OC(C)C)-n1c(-c3cc[nH]n3)nc(C(=O)N3CCOCC3(C)C)c1CC2` [Compound 69] here?
The EC50 was over 5000 nM.

`COc1cc2c(cc1OC(C)C)-n1c(-c3cccc(OC)c3F)nc(C(=O)N3CCOCC3(C)C)c1CC2` [Compound 112] was tested. Which EC50 did it give?
The EC50 was 1000 to 5000 nM.
